Data on two compounds can be found in patent publication US20240418735A1, “Methods and Kits for Determining Insulin Resistance Treatment” (Scimar Ltd., priority 2021, published 2024).

Experiment [1] has as its system MIS (Meal-induced Insulin Sensitization). The experiment in a line: RIST index / % MIS before and 90 minutes after a mixed liquid meal in sucrose-supplemented rats. In kind it is in vivo. The note with it: for restoration of MIS on increasing the dose: increased doses of either NAC or BE, sucrose-supplemented rats. The text has this:
While the present invention is not limited to a particular model or mechanism of action, it appears the response to feeding results in the release of acetylcholine which activates muscarinic receptors in the liver. This activation leads to increased production of nitric oxide which stimulates guanyl cyclase activity, resulting in increased levels of cyclic guanosine monophosphate which acts in stimulating the release of hepatalin from the liver. Meal-induced insulin […] (MIS) results from insulin-induced secretion of hepatalin which can only occur if the liver receives two permissive feeding signals. Absence of either signal blocks the ability of insulin to trigger hepatalin secretion. The combination of bethanechol and N-acetylcystelne (BENAC) mimics the 2 signals.
FIG. 1 is a chart showing BENAC synergistic treatment of AMIS. The % MIS (hepatalin/insulin action×100%) calculated from the RIST index in 24 hour fasted anaesthetized rats determined before and 90 minutes after intragastric injection of a mixed liquid meal in a normal control group and in four groups that had been treated with nine weeks of sucrose supplementation.

The subject of another experiment is hepatalin secretion. As to conditions: one dose given before a test meal; rats on sucrose supplemented diet, 9 weeks; cited from earlier work.
In another experiment the test system is GSH. The experiment in a line: GSH levels in sucrose-supplemented rats. In kind it is in vivo. The note with it: nine weeks of sucrose supplementation.

On to `CC(C[N+](C)(C)C)OC(N)=O` (stereo not shown) [Bethanechol], for which the “restoration of MIS (% MIS calculated from the RIST index)” value in experiment [1] (24 hour fasted anaesthetized rats, nine weeks of sucrose supplementation, before and 90 minutes after intragastric mixed liquid meal) is on record as “modest restoration of MIS”. Besides, the “restoration of MIS on increasing the dose” value in experiment [1] is “restored MIS to levels seen after feeding but not above”. Moreover, in the experiment on hepatalin secretion, the “ability of insulin to stimulate hepatalin secretion” value was “ineffective”.
Consider `CC(=O)N[C@@H](CS)C(=O)O` [N-acetyl cysteine], for which the “effect on the RIST index” value in experiment [1] (24 hour fasted anaesthetized rats, nine weeks of sucrose supplementation) is given as “no effect”. Also, the “restoration of MIS on increasing the dose” value in experiment [1] is given as “restored MIS to levels seen after feeding but not above”. Besides, the GSH levels entry with GSH is listed as “elevated GSH levels to that seen after feeding”. The “ability of insulin to stimulate hepatalin secretion” value in the experiment with hepatalin secretion is on record as “ineffective”.
